Experimental data reported in ChEMBL document CHEMBL5537113, “Discovery of 1,2-diaryl-3-oxopyrazolidin-4-carboxamides as a new class of MurA enzyme inhibitors and characterization of their antibacterial activity” (Eur J Med Chem, 2023).

Experiments:
Escherichia coli = assay: Antibacterial activity against Escherichia coli harboring tolC deletion mutant assessed as reduction in microbial growth incubated for 16 hrs by serial dilution method; assay type: functional
Staphylococcus aureus = assay: Antibacterial activity against Staphylococcus aureus Newman assessed as reduction in microbial growth incubated for 16 hrs by serial dilution method; assay type: functional
[1] = molecular target: UDP-N-acetylglucosamine 1-carboxyvinyltransferase (Escherichia coli K-12, UniProt P0A749); assay: Inhibition of Escherichia colo K12 His-tagged MurA expressed in Escherichia coli BL21 cells using UNAG as substrate pre incubated for 10 mins followed by substrate addition and measured after 30 mins by microplate reader analysis
Bacillus subtilis = assay: Antibacterial activity against Bacillus subtilis ATCC 6633 assessed as reduction in microbial growth incubated for 16 hrs by serial dilution method; assay type: functional
Bacteroides fragilis [2] = assay: Antibacterial activity against Bacteroides fragilis HM 20 assessed as reduction in microbial growth incubated for 48 hrs by broth microdilution method; assay type: functional
Clostridioides difficile [3] = assay: Antibacterial activity against Clostridioides difficile NR-49277 assessed as reduction in microbial growth incubated for 48 hrs by broth microdilution method; assay type: functional
Clostridioides difficile [4] = assay: Antibacterial activity against Clostridioides difficile NR-49294 assessed as reduction in microbial growth incubated for 48 hrs by broth microdilution method; assay type: functional
Clostridioides difficile [5] = assay: Bactericidal activity against Clostridioides difficile NR-49284 assessed as reduction in microbial growth by broth microdilution method; assay type: functional
Clostridioides difficile [6] = assay: Antibacterial activity against Clostridioides difficile ATCC 43255 assessed as reduction in microbial growth incubated for 48 hrs by broth microdilution method; assay type: functional
Clostridioides difficile [7] = assay: Bactericidal activity against Clostridioides difficile NR-32895 assessed as reduction in microbial growth by broth microdilution method; assay type: functional
Clostridioides difficile [8] = assay: Antibacterial activity against Clostridioides difficile NR-49278 assessed as reduction in microbial growth incubated for 48 hrs by broth microdilution method; assay type: functional
Bacteroides fragilis [9] = assay: Antibacterial activity against Bacteroides fragilis HM 719 assessed as reduction in microbial growth incubated for 48 hrs by broth microdilution method; assay type: functional
Bacteroides fragilis [10] = assay: Antibacterial activity against Bacteroides fragilis HM 709 assessed as reduction in microbial growth incubated for 48 hrs by broth microdilution method; assay type: functional
Clostridioides difficile [11] = assay: Antibacterial activity against Clostridioides difficile NR-49291 assessed as reduction in microbial growth incubated for 48 hrs by broth microdilution method; assay type: functional
Clostridioides difficile [12] = assay: Antibacterial activity against Clostridioides difficile NR-49283 assessed as reduction in microbial growth incubated for 48 hrs by broth microdilution method; assay type: functional
Lactobacillus crispatus [13] = assay: Antibacterial activity against Lactobacillus crispatus HM 103 assessed as reduction in microbial growth incubated for 48 hrs by broth microdilution method; assay type: functional
Bacteroides fragilis [14] = assay: Antibacterial activity against Bacteroides fragilis HM 718 assessed as reduction in microbial growth incubated for 48 hrs by broth microdilution method; assay type: functional
Lactobacillus gasseri [15] = assay: Antibacterial activity against Lactobacillus gasseri HM 403 assessed as reduction in microbial growth incubated for 48 hrs by broth microdilution method; assay type: functional
Clostridioides difficile [16] = assay: Antibacterial activity against Clostridioides difficile NR-32889 assessed as reduction in microbial growth incubated for 48 hrs by broth microdilution method; assay type: functional
Clostridioides difficile [17] = assay: Antibacterial activity against Clostridioides difficile HM-88 assessed as reduction in microbial growth incubated for 48 hrs by broth microdilution method; assay type: functional
Clostridioides difficile [18] = assay: Antibacterial activity against Clostridioides difficile NR-49288 assessed as reduction in microbial growth incubated for 48 hrs by broth microdilution method; assay type: functional
Clostridioides difficile [19] = assay: Antibacterial activity against Clostridioides difficile NR-49282 assessed as reduction in microbial growth incubated for 48 hrs by broth microdilution method; assay type: functional
Clostridioides difficile [20] = assay: Antibacterial activity against Clostridioides difficile NR-49287 assessed as reduction in microbial growth incubated for 48 hrs by broth microdilution method; assay type: functional
Clostridioides difficile [21] = assay: Antibacterial activity against Clostridioides difficile NR-49286 assessed as reduction in microbial growth incubated for 48 hrs by broth microdilution method; assay type: functional
Clostridioides difficile [22] = assay: Antibacterial activity against Clostridioides difficile NR-49284 assessed as reduction in microbial growth incubated for 48 hrs by broth microdilution method; assay type: functional
Clostridioides difficile [23] = assay: Antibacterial activity against Clostridioides difficile NR-49279 assessed as reduction in microbial growth incubated for 48 hrs by broth microdilution method; assay type: functional
[24] = system: Bifidobacterium angulatum; assay: Antibacterial activity against Bifidobacterium angulatum HM 1189 assessed as reduction in microbial growth incubated for 48 hrs by broth microdilution method; assay type: functional
Clostridioides difficile [25] = assay: Bactericidal activity against Clostridioides difficile NR-49278 assessed as reduction in microbial growth by broth microdilution method; assay type: functional
Bifidobacterium breve [26] = assay: Antibacterial activity against Bifidobacterium breve HM1120 assessed as reduction in microbial growth incubated for 48 hrs by broth microdilution method; assay type: functional
Clostridioides difficile [27] = assay: Antibacterial activity against Clostridioides difficile NR-13436 assessed as reduction in microbial growth incubated for 48 hrs by broth microdilution method; assay type: functional
Bifidobacterium longum = assay: Antibacterial activity against Bifidobacterium longum HM 846 assessed as reduction in microbial growth incubated for 48 hrs by broth microdilution method; assay type: functional
Clostridioides difficile [28] = assay: Antibacterial activity against Clostridioides difficile NR-32895 assessed as reduction in microbial growth incubated for 48 hrs by broth microdilution method; assay type: functional
Clostridioides difficile [29] = assay: Bactericidal activity against Clostridioides difficile NR-32904 assessed as reduction in microbial growth by broth microdilution method; assay type: functional
Clostridioides difficile [30] = assay: Antibacterial activity against Clostridioides difficile NR-32904 assessed as reduction in microbial growth incubated for 48 hrs by broth microdilution method; assay type: functional
Bifidobacterium breve [31] = assay: Antibacterial activity against Bifidobacterium breve HM 412 assessed as reduction in microbial growth incubated for 48 hrs by broth microdilution method; assay type: functional
Clostridioides difficile [32] = assay: Antibacterial activity against Clostridioides difficile NR-32903 assessed as reduction in microbial growth incubated for 48 hrs by broth microdilution method; assay type: functional
Lactobacillus crispatus [33] = assay: Antibacterial activity against Lactobacillus crispatus HM 420 assessed as reduction in microbial growth incubated for 48 hrs by broth microdilution method; assay type: functional
Lactobacillus gasseri [34] = assay: Antibacterial activity against Lactobacillus gasseri HM 407 assessed as reduction in microbial growth incubated for 48 hrs by broth microdilution method; assay type: functional
Clostridioides difficile [35] = assay: Bactericidal activity against Clostridioides difficile ATCC 43255 assessed as reduction in microbial growth by broth microdilution method; assay type: functional
Clostridioides difficile [36] = assay: Antibacterial activity against Clostridioides difficile NR-49285 assessed as reduction in microbial growth incubated for 48 hrs by broth microdilution method; assay type: functional
Clostridioides difficile [37] = assay: Antibacterial activity against Clostridioides difficile NR-13427 assessed as reduction in microbial growth incubated for 48 hrs by broth microdilution method; assay type: functional
Clostridioides difficile [38] = assay: Bactericidal activity against Clostridioides difficile ATCC BAA1870 assessed as reduction in microbial growth by broth microdilution method; assay type: functional

UDP-N-acetylglucosamine 1-carboxyvinyltransferase, sequence (P0A749 whole entry): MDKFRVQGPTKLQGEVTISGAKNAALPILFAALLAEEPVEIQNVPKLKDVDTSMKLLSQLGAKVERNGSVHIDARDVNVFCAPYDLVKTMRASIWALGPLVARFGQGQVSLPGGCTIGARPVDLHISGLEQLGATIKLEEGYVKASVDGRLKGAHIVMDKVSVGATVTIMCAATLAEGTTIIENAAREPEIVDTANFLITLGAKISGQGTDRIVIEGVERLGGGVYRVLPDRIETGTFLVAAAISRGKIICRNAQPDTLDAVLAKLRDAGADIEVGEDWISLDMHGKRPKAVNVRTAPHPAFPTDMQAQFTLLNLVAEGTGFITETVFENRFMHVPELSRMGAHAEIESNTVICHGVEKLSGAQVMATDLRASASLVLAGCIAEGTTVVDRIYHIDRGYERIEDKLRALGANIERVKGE

Q: For `O=C1/C(=N\O)CN(c2cccc(Cl)c2)N1c1cccc(Cl)c1`, which MIC (Escherichia coli) is on record?
A: The MIC was 4 µg/mL.

Q: And the MIC (Staphylococcus aureus)?
A: The MIC was 20 µg/mL.

Q: What about the IC50 [1] of the same compound?
A: Its IC50 is 88.1 µM.

Q: And the MIC (Bacillus subtilis)?
A: Its MIC is 10 µg/mL.

Q: With `CCc1c(Cl)c(O)c(Cl)c(O)c1C(=O)O[C@H]1[C@H](O)[C@H](OC)[C@H](OC/C2=C\C=C\C[C@H](O)/C(C)=C/[C@H](CC)[C@@H](O[C@@H]3OC(C)(C)[C@@H](OC(=O)C(C)C)[C@H](O)[C@@H]3O)/C(C)=C/C(C)=C/C[C@@H]([C@@H](C)O)OC2=O)O[C@@H]1C` [FIDAXOMICIN] as the compound, how does the MIC (Bacteroides fragilis [2]) read?
A: Its MIC is greater than 64 µg/mL.

Q: And the MIC (Clostridioides difficile [3])?
A: Its MIC is 0.06 µg/mL.

Q: And the MIC (Clostridioides difficile [4])?
A: Its MIC is 0.06 µg/mL.

Q: What about the MBC (Clostridioides difficile [5]) of the same compound?
A: Its MBC is 0.06 µg/mL.

Q: And the MIC (Clostridioides difficile [6])?
A: The MIC was 0.03 µg/mL.

Q: And the MBC (Clostridioides difficile [7])?
A: The MBC was 0.06 µg/mL.

Q: What about the MIC (Clostridioides difficile [8]) of the same compound?
A: Its MIC is 0.06 µg/mL.

Q: And the MIC (Bacteroides fragilis [9])?
A: Its MIC is greater than 64 µg/mL.

Q: And the MIC (Bacteroides fragilis [10])?
A: The MIC was greater than 64 µg/mL.

Q: And the MIC (Clostridioides difficile [11])?
A: The MIC was 0.125 µg/mL.

Q: And the MIC (Clostridioides difficile [12])?
A: The MIC was 0.06 µg/mL.

Q: And the MIC (Lactobacillus crispatus [13])?
A: Its MIC is 0.5 µg/mL.

Q: And the MIC (Bacteroides fragilis [14])?
A: Its MIC is greater than 64 µg/mL.

Q: What about the MIC (Lactobacillus gasseri [15]) of the same compound?
A: The MIC was 1 µg/mL.

Q: What about the MIC (Clostridioides difficile [16]) of the same compound?
A: The MIC was 0.03 µg/mL.

Q: And the MIC (Clostridioides difficile [17])?
A: The MIC was 0.015 µg/mL.

Q: What about the MIC (Clostridioides difficile [18]) of the same compound?
A: The MIC was 0.03 µg/mL.

Q: And the MIC (Clostridioides difficile [19])?
A: Its MIC is 0.06 µg/mL.

Q: What about the MIC (Clostridioides difficile [20]) of the same compound?
A: The MIC was 0.125 µg/mL.

Q: And the MIC (Clostridioides difficile [21])?
A: The MIC was 0.125 µg/mL.

Q: What about the MIC (Clostridioides difficile [22]) of the same compound?
A: The MIC was 0.06 µg/mL.

Q: And the MIC (Clostridioides difficile [23])?
A: Its MIC is 0.125 µg/mL.

Q: What about the MIC [24] of the same compound?
A: The MIC was no more than 0.06 µg/mL.

Q: What about the MBC (Clostridioides difficile [25]) of the same compound?
A: Its MBC is 0.125 µg/mL.

Q: What about the MIC (Bifidobacterium breve [26]) of the same compound?
A: The MIC was no more than 0.06 µg/mL.

Q: And the MIC (Clostridioides difficile [27])?
A: Its MIC is 0.06 µg/mL.

Q: What about the MIC (Bifidobacterium longum) of the same compound?
A: The MIC was no more than 0.06 µg/mL.

Q: And the MIC (Clostridioides difficile [28])?
A: The MIC was 0.03 µg/mL.

Q: And the MBC (Clostridioides difficile [29])?
A: The MBC was 0.06 µg/mL.

Q: And the MIC (Clostridioides difficile [30])?
A: Its MIC is 0.06 µg/mL.

Q: What about the MIC (Bifidobacterium breve [31]) of the same compound?
A: Its MIC is no more than 0.06 µg/mL.

Q: And the MIC (Clostridioides difficile [32])?
A: Its MIC is 0.06 µg/mL.

Q: And the MIC (Lactobacillus crispatus [33])?
A: Its MIC is 2 µg/mL.

Q: And the MIC (Lactobacillus gasseri [34])?
A: Its MIC is 1 µg/mL.

Q: And the MBC (Clostridioides difficile [35])?
A: The MBC was 0.06 µg/mL.

Q: What about the MIC (Clostridioides difficile [36]) of the same compound?
A: The MIC was 0.06 µg/mL.

Q: And the MIC (Clostridioides difficile [37])?
A: The MIC was 0.06 µg/mL.

Q: And the MBC (Clostridioides difficile [38])?
A: Its MBC is 0.25 µg/mL.
